Measured values from patent publication US6344571B2, “Water soluble analogs and prodrugs of paclitaxel” (Pharmachemie B.V., priority 1998, dated 2002).
≈ marks a conversion by molar mass, not a printed value. Entries after “also recorded” stand apart in the source; their conditions may differ. Like-named read-outs stand apart in the source and are kept apart here.

What was measured:
microtubule assembly = details: SAR studies, literature; cited from earlier work
[1] = Water solubility (suspension in water or PBS-buffer, HPLC)
Experimental: Water Solubility: Paclitaxel or paclitaxel prodrugs (5, 6, 8, 11) were suspended in water or PBS-buffer (pH 7.4) until a concentration was reached of 2 mg/ml. The suspensions were sonicated for 15 minutes and centrifuged (13000 g) for 10 minutes (Nicolaou, K. C. et al. Nature 1993, 364, 464-466). The above fluid was analyzed, using HPLC. The paclitaxel (prodrug) concentration was determined using paclitaxel standards in methanol.
HPLC: Rheodyne injection valve (20 μl loop); Lichrospher 5RP18 column (200×3 mm, Chrompack); UV-detector (Model 759A, Applied Biosystems); eluent: CH3CN/MeOH/H2O: 5/1/4 in 10 mM NH4OAc (pH 5.0) (Willey, T. A. J. Chromatography 1993, 621, 231-238). The detection of the (pro)drugs was performed at 226 nm, where it is supposed that the extinction coefficients of paclitaxel and paclitaxel prodrugs are equal. The concentrations were determined by measuring the relative area of paclitaxel or the paclitaxel prodrugs.

MCF7 Breast cancer = assay: Antiproliferative SRB assay, MCF7; format: cell-based, human; details: 37° C. 72 h, vs untreated cells
Experimental: (§1) Determination of the IC50-values for the new synthesized prodrugs have been determined with a variety of cell lines and have been compared with the IC50-value of paclitaxel 1 (see table II) Compounds 1, 5, 8, 11,:
(§2) The following human tumor cell lines were used:
(§3) MCF7 is estrogen receptor ER+/Progesterone receptor PgR+ and EVSA-T is ER-/PgR-.
(§4) Prior to the experiments a myocoplasma test was carried out on all cell lines and found to be negative. All cell lines, except ETSA-T, were maintained in a continuous logarithmic culture in RPMI medium with Hepes and Phenol red supplemented with 10% bovine calf serum (BCS), penicillin 111 IU/ml, streptomycin 111 μg/ml, gentamycin 46 μg/ml and insulin 10.6 μg/ml. EVSA-T was maintained in DMEM with 5% BCS and antibiotics as described. The cells were mildly trypsinized for passage and for use in experiments.
(§5) The compounds of this invention were dissolved to a concentration of 177147 ng/ml as follows:
(§6) On day 0, 200 μl of trypsinized tumor cells (2*10^3 cells/well) were plated in 96-wells flatbottom microtiter plates (Costar, no. 3799, Badhoevedorp, The Netherlands). The plates were preincubated 24 hr at 37° C., 5% CO2 to allow the cells to adhere.
(§7) […] The final volume of column 3 was adjusted to 200 μl with PBS. Column 2 was used for the blank. To column 1 PBS was added to diminish interfering evaporation.
(§8) […] Subsequently the cells were fixed with 10% trichloroacetic acid in Milli Q water (Millipore, Etten Leur, The Netherlands) and placed at 4° C. for one hour.
(§9) After five washings with tap water, the cells were stained for at least 15 min. with 0.4% SRB, dissolved in 1% acetic acid, and subsequently washed with 1% acetic acid to remove the unbound stain. The plates were air dried and the bound protein was dissolved by using 150 μl 10 mmol/l tris base. The absorbance was read at 540 nm using an automatic microplate reader (Titertec, Flow Laboratories LtD., Irvine, Scotland). Data were used for construction of concentration-response curves and determination of the IC50-value.

EVSA-T Breast cancer = assay: Antiproliferative SRB assay, EVSA-T; format: cell-based, human; details: 37° C. 72 h, vs untreated cells
Experimental: as §1, §2, §3, §4, §5, §6, §7, §8, §9

WIDR Colon cancer = assay: Antiproliferative SRB assay, WIDR; format: cell-based, human; details: vs untreated cells
Source text: as §1, §2
(§10) Cell lines WIDR, M19 MEL, A498 and IGROV belong to the currently used anti-cancer screening panel of the National Cancer Institute, USA (Skeham et al., J. Nat. Cancer Inst. 85: 1107-1112, 1990).
as §4, §5, §6, §7, §8, §9

IGROV Ovarian cancer = assay: Antiproliferative SRB assay, IGROV; format: cell-based, human; details: 37° C. 72 h, vs untreated cells
Source text: as §1, §2, §10, §4, §5, §6, §7, §8, §9

M19 MEL Melanoma = assay: Antiproliferative SRB assay, M19 MEL; format: cell-based, human; details: vs untreated cells
Source text: as §1, §2, §10, §4, §5, §6, §7, §8, §9

A498 Renal cancer = assay: Antiproliferative SRB assay, A498; format: cell-based, human; details: 37° C. 72 h, vs untreated cells
Source text: as §1, §2, §10, §4, §5, §6, §7, §8, §9

H226 = assay: Antiproliferative SRB assay, H226; format: cell-based, human; details: vs untreated cells
Experimental: as §1, §2
HA266 non small cell lung cancer
as §4, §5, §6, §7, §8, §9

OVCAR-3 cells = assay: In vitro antiproliferative effects, OVCAR-3; format: cell-based, human; details: for IC50: 37° C. 72 h, vs untreated cells
Experimental: The human tumor cell line OVCAR-3 was used. OVCAR is an ovarium carcinoma.
In vitro antiproliferative effects: paclitaxel or paclitaxel prodrugs were dissolved in DMSO to give a concentration of 5 mM. Concentrations were verified by measuring the OD at 226 nm. The antiproliferative effects of drugs and prodrugs were determined with the use of OVCAR-3 cells. Cells in supplemented tissue culture medium (DMEM, 10% fetal calf serum with 50 IU/ml penicillin and 50 microgram/ml streptomycin) were seeded in triplicate in 96-well culture plates (5000/well, 100 microliter). After 24 h, 100 microliter of culture medium containing drug or prodrug was added to give final concentrations ranging from 1 picomolar to 10 micromolar.
The cells were incubated for an additional 72 h, fixed with 10% trichoroacetic acid and stained with sulforhodamine B. The absorbance at 540 nm was read and the antiproliferative effects were expressed as IC50 values, inhibition when compared with control cell growth (Houba et al. Bioconj. Chem. 1996, 7, 606-611).

[2] = Stability in PBS-buffer (pH 7.4), degradation to paclitaxel; format: physicochemical; details: for stability in PBS buffer: PBS-buffer pH 7.4
Experimental: The paclitaxel prodrugs (5, 6, 8, 11) were dissolved in water, sonicated and centrifuged. 100 μl of the above fluid was mixed with 400 μl of plasma (heparin) or PBS-buffer (pH7.4), respectively, in such way that the concentration of the prodrug was about 0.5 mg/mL. […] After mixing for 2 minutes (using a vortex), this mixture was centrifuged (2 minutes, 13000 g) and 100 μl EtOAc was evaporated (30 minutes, in vacuo). The (pro)drugs were dissolved in 50 μl eluent and analyzed by HPLC (Longnecker, S. M. Cancer Treat Rep. 1987, 71, 53-59). The efficiency for the extraction of paclitaxel was about 80%.

[3] = Stability in human plasma, degradation to paclitaxel; format: in vitro ADME; details: for T1/2 Human Plasma: human plasma (heparin), 37° C., time in which 50% of the analog is degraded to paclitaxel
Experimental: The paclitaxel prodrugs (5, 6, 8, 11) were dissolved in water, sonicated and centrifuged. 100 μl of the above fluid was mixed with 400 μl of plasma (heparin) or PBS-buffer (pH7.4), respectively, in such way that the concentration of the prodrug was about 0.5 mg/mL. The plasma or PBS-buffer, respectively, was incubated at 37° C. and on different points in time (T=0, 0.5, 1, 4, 20, 48 hours) 50 μl was extracted with 150 μl of EtOAc. After mixing for 2 minutes (using a vortex), this mixture was centrifuged (2 minutes, 13000 g) and 100 μl EtOAc was evaporated (30 minutes, in vacuo). The (pro)drugs were dissolved in 50 μl eluent and analyzed by HPLC (Longnecker, S. M. Cancer Treat Rep. 1987, 71, 53-59). The efficiency for the extraction of paclitaxel was about 80%.

human tumor cell lines = assay: Cytotoxic activity in human tumor cell lines, overall comparison with paclitaxel; format: cell-based
Experimental: as §1, §2, §6
On day 2, 100 μl of the highest drug concentration was added to the wells of column 12 and from there diluted 3-fold to column 3 by serial transfer of 100 μl using an 8 channel micropipette. The final volume of column 3 was adjusted to 200 μl with PBS. Column 2 was used for the blank. To column 1 PBS was added to diminish interfering evaporation.
On day 7 the incubation was terminated by washing the plates twice with PBS. […]
After five washings with tap water, the cells were stained for at least 15 min. with 0.4% SRB, dissolved in 1% acetic acid, and subsequently washed with 1% acetic acid to remove the unbound stain. […] The absorbance was read at 540 nm using an automatic microplate reader (Titertec, Flow Laboratories LtD., Irvine, Scotland). […]

[4] = SAR studies, literature; cited from earlier work

Row | SMILES | IC50 MCF7 (MCF7 Breast cancer) [µg/mL] | IC50 EVSA-T (EVSA-T Breast cancer) [µg/mL] | IC50 WIDR (WIDR Colon cancer) [µg/mL] | IC50 IGROV (IGROV Ovarian cancer) [µg/mL] | IC50 M19 MEL (M19 MEL Melanoma) [µg/mL] | IC50 A498 (A498 Renal cancer) [µg/mL] | IC50 H226 (H226) [µg/mL] | Water Solubility [1] [µg/mL] | stability in PBS buffer [2] | T1/2 Human Plasma [3] | degradation to paclitaxel in human plasma [3] | also measured
1 | CC(=O)O[C@H]1C(=O)[C@]2(C)[C@@H](OC(C)=O)C[C@H]3OC[C@@]3(OC(C)=O)[C@H]2[C@H](OC(=O)c2ccccc2)[C@]2(O)C[C@H](OC(=O)[C@H](O)[C@@H](NC(=O)c3ccccc3)c3ccccc3)C(C)=C1C2(C)C [7-acetylpaclitaxel] | – | – | – | – | – | – | – | – | – | – | – | activity in microtubule assembly assays (microtubule assembly): as active as paclitaxel
2 | CC(=O)O[C@H]1C(=O)[C@@]2(C)[C@H]([C@H](OC(=O)c3ccccc3)[C@]3(O)C[C@H](OC(=O)[C@H](O)[C@@H](NC(=O)c4ccccc4)c4ccccc4)C(C)=C1C3(C)C)[C@]1(OC(C)=O)CO[C@@H]1C[C@@H]2O [paclitaxel, Paclitaxel] | <0.003 | <0.003 | <0.003 | 0.033 (≈ 0.0386 µM) | <0.003 | 0.005 (≈ 0.00586 µM) | <0.003 | – | – | – | – | Water Solubility ([1]; suspended to 2 mg/ml, sonicated 15 minutes, centrifuged, HPLC): 10 µg/mL; IC50 (OVCAR-3 cells): 0.25 nM
3 | CC(=O)O[C@H]1C(=O)[C@@]2(C)[C@H]([C@H](OC(=O)c3ccccc3)[C@]3(O)C[C@H](OC(=O)[C@H](OC(=O)CC(O)C(=O)O)[C@@H](NC(=O)c4ccccc4)c4ccccc4)C(C)=C1C3(C)C)[C@]1(OC(C)=O)CO[C@@H]1C[C@@H]2O (stereo partly drawn) [Compound 5, 2′-Malylpaclitaxel] | <0.003 | <0.003 | <0.003 | <0.003 | 0.003 (≈ 0.00309 µM) | 0.039 (≈ 0.0402 µM) | 0.01 (≈ 0.0103 µM) | 200 | sufficient stability; also recorded: stable | 20 h | – | paclitaxel detected in PBS-buffer after 24 hours ([2]; PBS-buffer pH 7.4, after 24 hours): only traces
4 | CC(=O)O[C@H]1C(=O)[C@@]2(C)[C@H]([C@H](OC(=O)c3ccccc3)[C@]3(O)C[C@H](OC(=O)[C@H](OC(=O)CC(O)C(=O)[O-])[C@@H](NC(=O)c4ccccc4)c4ccccc4)C(C)=C1C3(C)C)[C@]1(OC(C)=O)CO[C@@H]1C[C@@H]2O.[Na+] (stereo partly drawn) [Compound 6, Sodium salt of 2′-malylpaclitaxel] | <0.003 | <0.003 | <0.003 | 0.233 | <0.003 | <0.003 | <0.003 | 600 | sufficient stability | 4 h | fast hydrolysis rate | water solubility compared with paclitaxel [1]: Best water solubility; water solubility relative to paclitaxel (times more watersoluble) [1]: sixty; amount degraded to paclitaxel within 4 hours ([3]; within 4 hours, matrix not printed in the sentence (human plasma per Table I)): about 500; activity against OVCAR-3 cells compared to paclitaxel (OVCAR-3 cells): comparable; IC50 (OVCAR-3 cells): 0.8 nM
5 | CC(=O)O[C@H]1C(=O)[C@]2(C)[C@@H](OC(=O)CC(O)C(=O)O)C[C@H]3OC[C@@]3(OC(C)=O)[C@H]2[C@H](OC(=O)c2ccccc2)[C@]2(O)C[C@H](OC(=O)[C@H](O)[C@@H](NC(=O)c3ccccc3)c3ccccc3)C(C)=C1C2(C)C (stereo partly drawn) [Compound 11, 7-Malylpaclitaxel] | 0.39 (≈ 0.402 µM) | 0.3 (≈ 0.309 µM) | 0.589 (≈ 0.607 µM) | 0.241 (≈ 0.248 µM) | 1.344 (≈ 1.39 µM) | 1.435 (≈ 1.48 µM) | 0.706 (≈ 0.728 µM) | 3 | sufficient stability; also recorded: no degradation to the parent drug | no pacl.^b | no degradation to the parent drug | cytotoxic activity compared to paclitaxel (human tumor cell lines): reduced cytotoxic activity
6 | CC(=O)OC1C(=O)C2(C)C(OC(=O)CC(O)C(=O)O)CC3OCC3(OC(C)=O)C2C(OC(=O)c2ccccc2)C2(O)CC(OC(=O)C(OC(=O)CC(O)C(=O)O)C(NC(=O)c3ccccc3)c3ccccc3)C(C)=C1C2(C)C (stereo not drawn) [Compound 8, 2′, 7-Bis(malyl)paclitaxel] | 0.069 (≈ 0.0635 µM) | 0.059 (≈ 0.0543 µM) | 0.167 (≈ 0.154 µM) | 0.049 (≈ 0.0451 µM) | 0.311 (≈ 0.286 µM) | 0.436 (≈ 0.401 µM) | 0.241 (≈ 0.222 µM) | 500 | sufficient stability; also recorded: no degradation to the parent drug | no pacl.^b | no degradation to the parent drug | cytotoxic activity compared to paclitaxel (human tumor cell lines): reduced cytotoxic activity
7 | CC(=O)O[C@H]1C(=O)[C@@]2(C)[C@H]([C@H](OC(=O)c3ccccc3)[C@]3(O)C[C@H](OC(=O)[C@H](OC(C)=O)[C@@H](NC(=O)c4ccccc4)c4ccccc4)C(C)=C1C3(C)C)[C@]1(OC(C)=O)CO[C@@H]1C[C@@H]2O [2′-acetyl-paclitaxel] | – | – | – | – | – | – | – | – | – | – | – | activity in microtubule assembly assays (microtubule assembly): loss of the ability to promote microtubule assembly; cytotoxic activity compared with paclitaxel [4]: almost the same as for paclitaxel
